Measurements from PubChem BioAssay AID192 (DTP/NCI, 2004).
Inconclusive results and toxic doses are left out. Numbered stars: 1 amine (or outer) side, 2 acyl side, 3 side chain; on linkers, the order of the positions; unused ones are H or OH. Bridge positions count the residues as written; N and C are the ends. Square brackets hold non-standard residues; d marks the D form. Peptide text beside a SMILES is read from it. I, II: the chains in the order shown. ξ: configuration not given here. Actinocin(9to1) = Cc1c2oc3c(C)ccc(C(=O)[*:1])c3nc-2c(C(=O)[*:2])c(N)c1=O; ξPro(4ξ-Me) = CC1CNC(C(=O)O)C1; NMeV = CN[CH](C(=O)O)C(C)C; Sar = CNCC(=O)O

Test system: BDF1 mice, B16 melanoma ip, median survival T/C
Test: NCI In Vivo Anticancer Drug Screen. Data for tumor model B16 Melanoma (intraperitoneal) in B6D2F1 (BDF1) mice
Details: endpoint: median survival time, higher = longer survival
Procedure, shortened: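 Antitumor activity is assessed in mice bearing a transplanted tumor, with survival or tumor size compared against vehicle-dosed controls and expressed as T/C.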

[1] = dose: 100.0 mg/kg/injection, schedule: Q04DX003 (ip), vehicle: Klucel (hydroxypropylcellulose) (HPC)
[2] = dose: 200.0 mg/kg/injection, schedule: Q04DX003 (ip), vehicle: Klucel (hydroxypropylcellulose) (HPC)
[3] = dose: 400.0 mg/kg/injection, schedule: Q04DX003 (ip), vehicle: Klucel (hydroxypropylcellulose) (HPC)
[4] = dose: 6.25 mg/kg/injection, schedule: Q01DX009 (ip), vehicle: saline
[5] = dose: 12.5 mg/kg/injection, schedule: Q01DX009 (ip), vehicle: saline
[6] = dose: 25.0 mg/kg/injection, schedule: Q01DX009 (ip), vehicle: saline
[7] = dose: 50.0 mg/kg/injection, schedule: Q01DX009 (ip), vehicle: saline
[8] = dose: 100.0 mg/kg/injection, schedule: Q01DX009 (ip), vehicle: saline
[9] = dose: 50.0 mg/kg/injection, schedule: Q01DX009 (ip), vehicle: Klucel (hydroxypropylcellulose) (HPC)
[10] = dose: 100.0 mg/kg/injection, schedule: Q01DX009 (ip), vehicle: Klucel (hydroxypropylcellulose) (HPC)
[11] = dose: 200.0 mg/kg/injection, schedule: Q01DX009 (ip), vehicle: Klucel (hydroxypropylcellulose) (HPC)
[12] = dose: 12.5 mg/kg/injection, schedule: Q01DX009 (ip), vehicle: saline with Tween-80
[13] = dose: 25.0 mg/kg/injection, schedule: Q01DX009 (ip), vehicle: saline with Tween-80
[14] = dose: 200.0 mg/kg/injection, schedule: Q01DX009 (ip), vehicle: saline

For O=C1CCCNc2ccccc21, the T/C (dose: 25.0 mg/kg/injection, schedule: Q04DX003 (ip), vehicle: saline with Tween-80) was 100 % of control, the T/C (dose: 50.0 mg/kg/injection, schedule: Q04DX003 (ip), vehicle: saline with Tween-80) was 102 % of control and the T/C (dose: 75.0 mg/kg/injection, schedule: Q04DX003 (ip), vehicle: saline with Tween-80) was 114 % of control. The T/C (dose: 100.0 mg/kg/injection, schedule: Q04DX003 (ip), vehicle: saline with Tween-80) was 101 % of control, the T/C (dose: 200.0 mg/kg/injection, schedule: Q04DX003 (ip), vehicle: saline with Tween-80) was 103 % of control and the T/C (dose: 400.0 mg/kg/injection, schedule: Q04DX003 (ip), vehicle: saline with Tween-80) was 90 % of control.

For C(=C\c1cnc2ccccc2n1)/c1ccc2c(c1)OCO2, the T/C (dose: 75.0 mg/kg/injection, schedule: Q01DX009 (ip), vehicle: Klucel (hydroxypropylcellulose) (HPC)) was 105 % of control and the T/C (dose: 150.0 mg/kg/injection, schedule: Q01DX009 (ip), vehicle: Klucel (hydroxypropylcellulose) (HPC)) was 94 % of control.

In the case of CCCCNC(=O)Nc1ccccc1CC, the T/C [1] is reported as 110 % of control, the T/C [2] is reported as 103 % of control and the T/C [3] is reported as 96 % of control.

In the case of CC(C(=O)O)C(=O)O.[NH2-].[NH2-].[Pt+2], the T/C (dose: 0.78 mg/kg/injection, schedule: Q01DX009 (ip), vehicle: Klucel (hydroxypropylcellulose) (HPC)) is reported as 102 % of control, the T/C (dose: 1.56 mg/kg/injection, schedule: Q01DX009 (ip), vehicle: Klucel (hydroxypropylcellulose) (HPC)) is reported as 109 % of control and the T/C (dose: 3.12 mg/kg/injection, schedule: Q01DX009 (ip), vehicle: Klucel (hydroxypropylcellulose) (HPC)) is reported as 120 % of control. The T/C (dose: 6.25 mg/kg/injection, schedule: Q01DX009 (ip), vehicle: Klucel (hydroxypropylcellulose) (HPC)) was 156 % of control, the T/C [4] was 124 % of control and the T/C (dose: 12.5 mg/kg/injection, schedule: Q01DX009 (ip), vehicle: Klucel (hydroxypropylcellulose) (HPC)) was 175 % of control. The T/C [5] was 160 % of control, the T/C (dose: 25.0 mg/kg/injection, schedule: Q01DX009 (ip), vehicle: Klucel (hydroxypropylcellulose) (HPC)) was 216 % of control and the T/C [6] was 175 % of control. The T/C [7] was 209 % of control and the T/C [8] was 202 % of control.

CC1(C)SC(C(NC(=O)COc2ccccc2)C(=O)O)NC1C(=O)O (stereo unspecified) was tested, and the T/C [9] was 107 % of control, the T/C [10] was 110 % of control and the T/C [11] was 105 % of control.

With CC(=O)CC(=O)Nc1cc(Cl)ccc1C the T/C [9] was 105 % of control, the T/C [10] was 92 % of control and the T/C [11] was 94 % of control.

For O=C(Nc1ccccc1C(F)(F)F)c1cccc(C(=O)Nc2ccccc2C(F)(F)F)c1, the T/C (dose: 100.0 mg/kg/injection, schedule: Q04DX003 (ip), vehicle: carboxymethylcellulose (CMC)) was 100 % of control and the T/C (dose: 200.0 mg/kg/injection, schedule: Q04DX003 (ip), vehicle: carboxymethylcellulose (CMC)) was 91 % of control.

With O=C(Nc1ccc(C2=NCCN2)cc1)c1ccc(C(=O)Nc2ccc(C3=NCCN3)cc2)c(Cl)c1 the T/C (dose: 3.12 mg/kg/injection, schedule: Q01DX009 (ip), vehicle: saline with Tween-80) was 93 % of control, the T/C (dose: 6.25 mg/kg/injection, schedule: Q01DX009 (ip), vehicle: saline with Tween-80) was 104 % of control and the T/C (dose: 8.0 mg/kg/injection, schedule: Q01DX009 (ip), vehicle: saline with Tween-80) was 104 % of control. The T/C [12] was 108 % of control, the T/C (dose: 16.0 mg/kg/injection, schedule: Q01DX009 (ip), vehicle: saline with Tween-80) was 102 % of control and the T/C [13] was 105 % of control.

With COC(=O)CC(=O)C=P(c1ccccc1)(c1ccccc1)c1ccccc1 the T/C [12] was 98 % of control, the T/C [13] was 103 % of control and the T/C (dose: 50.0 mg/kg/injection, schedule: Q01DX009 (ip), vehicle: saline with Tween-80) was 107 % of control. The T/C (dose: 100.0 mg/kg/injection, schedule: Q01DX009 (ip), vehicle: saline with Tween-80) was 113 % of control.

In the case of CN(C)CCN1c2ccccc2Sc2ccccc21, the T/C [4] is reported as 110 % of control, the T/C [5] is reported as 97 % of control and the T/C [6] is reported as 92 % of control. For the same compound, the T/C [7] was 97 % of control and the T/C [8] was 92 % of control.

With COc1cc(NS(C)(=O)=O)ccc1Nc1c2cccc(C)c2nc2c(C)cccc12 the T/C (dose: 0.8 mg/kg/injection, schedule: Q01DX009 (ip), vehicle: other) was 115 % of control, the T/C (dose: 1.6 mg/kg/injection, schedule: Q01DX009 (ip), vehicle: other) was 115 % of control and the T/C (dose: 6.25 mg/kg/injection, schedule: Q01DX009 (ip), vehicle: saline sonified) was 158 % of control. For the same compound, the T/C (dose: 12.5 mg/kg/injection, schedule: Q01DX009 (ip), vehicle: other) was 189 % of control, the T/C (dose: 12.5 mg/kg/injection, schedule: Q01DX009 (ip), vehicle: saline sonified) was 204 % of control and the T/C (dose: 25.0 mg/kg/injection, schedule: Q01DX009 (ip), vehicle: other) was 208 % of control. The T/C (dose: 25.0 mg/kg/injection, schedule: Q01DX009 (ip), vehicle: saline sonified) was 183 % of control, the T/C (dose: 25.0 mg/kg/injection, schedule: Q04DX003 (ip), vehicle: other) was 166 % of control and the T/C (dose: 50.0 mg/kg/injection, schedule: Q01DX001 (ip), vehicle: saline sonified) was 169 % of control. For the same compound, the T/C (dose: 50.0 mg/kg/injection, schedule: Q04DX003 (ip), vehicle: other) was 156 % of control, the T/C (dose: 100.0 mg/kg/injection, schedule: Q01DX001 (ip), vehicle: saline sonified) was 165 % of control and the T/C (dose: 200.0 mg/kg/injection, schedule: Q01DX001 (ip), vehicle: saline sonified) was 152 % of control.

In the case of C1CCNCC1, the T/C [6] is reported as 100 % of control, the T/C [7] is reported as 102 % of control and the T/C [8] is reported as 107 % of control. The T/C [14] was 102 % of control.

With O=P(OCC(Br)CBr)(OCC(Br)CBr)OCC(Br)CBr (stereo unspecified) the T/C [1] was 100 % of control, the T/C [2] was 102 % of control and the T/C [3] was 101 % of control.

OC(C1CO1)(C(F)(F)F)C(F)(F)F (stereo unspecified) was tested, and the T/C [7] was 92 % of control, the T/C [8] was 90 % of control and the T/C [14] was 92 % of control.

In the case of CCOC(=O)Nc1ccc([N+](=O)[O-])cc1, the T/C [10] is reported as 113 % of control and the T/C [11] is reported as 103 % of control.

For COc1cc([NH-])c([NH-])cc1OC.[Cl][Pt+2][Cl], the T/C (dose: 10.0 mg/kg/injection, schedule: Q01DX009 (ip), vehicle: saline with Tween-80) was 97 % of control, the T/C (dose: 20.0 mg/kg/injection, schedule: Q01DX009 (ip), vehicle: saline with Tween-80) was 104 % of control and the T/C (dose: 40.0 mg/kg/injection, schedule: Q01DX009 (ip), vehicle: saline with Tween-80) was 103 % of control. The T/C (dose: 80.0 mg/kg/injection, schedule: Q01DX009 (ip), vehicle: saline with Tween-80) was 104 % of control and the T/C (dose: 160.0 mg/kg/injection, schedule: Q01DX009 (ip), vehicle: saline with Tween-80) was 94 % of control.

With Cc1c2oc3c(C)ccc(C(=O)NC4C(=O)NC(C(C)C)C(=O)N5CC(C)CC5C(=O)N(C)CC(=O)N(C)C(C(C)C)C(=O)OC4C)c3nc-2c(C(=O)NC2C(=O)NC(C(C)C)C(=O)N3CC(C)CC3C(=O)N(C)CC(=O)N(C)C(C(C)C)C(=O)OC2C)c(N)c1=O (stereo unspecified) (I: TV[ξPro(4ξ-Me)][Sar][NMeV] / II: TV[ξPro(4ξ-Me)][Sar][NMeV]; ester I:1-I:C, II:1-II:C; linker I:N-II:N via Actinocin(9to1); configuration not given here) the T/C (dose: 3.24 mg/kg/injection, schedule: Q04DX003 (ip), vehicle: saline + alcohol) was 163 % of control, the T/C (dose: 3.6 mg/kg/injection, schedule: Q04DX003 (ip), vehicle: saline + alcohol) was 123 % of control and the T/C (dose: 5.4 mg/kg/injection, schedule: Q04DX003 (ip), vehicle: saline + alcohol) was 153 % of control. The T/C (dose: 9.0 mg/kg/injection, schedule: Q04DX003 (ip), vehicle: saline + alcohol) was 207 % of control, the T/C (dose: 15.0 mg/kg/injection, schedule: Q04DX003 (ip), vehicle: saline + alcohol) was 188 % of control and the T/C (dose: 259.0 micrograms/kg/injection, schedule: Q01DX009 (ip), vehicle: saline + alcohol) was 114 % of control. The T/C (dose: 432.0 micrograms/kg/injection, schedule: Q01DX009 (ip), vehicle: saline + alcohol) was 122 % of control, the T/C (dose: 720.0 micrograms/kg/injection, schedule: Q01DX009 (ip), vehicle: saline + alcohol) was 118 % of control and the T/C (dose: 1200.0 micrograms/kg/injection, schedule: Q01DX009 (ip), vehicle: saline + alcohol) was 123 % of control.

COC(=O)c1ccccc1NC(=O)Nc1ccccc1 was tested, and the T/C [10] was 110 % of control, the T/C [11] was 105 % of control and the T/C (dose: 400.0 mg/kg/injection, schedule: Q01DX009 (ip), vehicle: Klucel (hydroxypropylcellulose) (HPC)) was 99 % of control.
